The results in this text go back to patent US9732084B2, “Pyrrolobenzodiazepines used to treat proliferative diseases” (priority 2010, dated 2017).

What all share (type): cell-based
In one assay the test system is BxPC-3. The experiment in a line: Alternative cell assay (Cell Titer Glo cytotoxicity). The conditions noted are these: Homo sapiens, BxPC-3 cells, 48 hours. On the procedure: (§1) Cells were plated in 150 μL growth media per well into black-sided clear-bottom 96-well plates (Costar, Corning) and allowed to settle for 1 hour in the biological cabinet before placing in the incubator at 37° C., 5% CO2. The following day, 4× concentration of drug stocks were prepared, and then titrated as 10-fold serial dilutions producing 8-point dose curves and added at 50 μl per well in duplicate. Cells were then incubated for 48 hours at 37° C., 5% CO2. Cytotoxicity was measure by incubating with 100 μL Cell Titer Glo (Promega) solution for 1 hour, and then luminescence was measured on a Fusion HT plate reader (Perkin Elmer). Data was processed with Excel (Microsoft) and GraphPad (Prism) to produce dose response curves and IC50 values were generated and data collected.
(ATP-based viability assays read luminescence as a measure of living cells.)

Assay [1] deals with 786-O. The description is as above. Conditions: Homo sapiens, 786-0, 786-O cells, 48 hours. On the procedure: as §1
Assay [2] deals with MCF-7. Described as above. Conditions: Homo sapiens, MCF7, MCF-7 cells, 48 hours. As to the method: as §1
Another assay relates to HL-60. Described as above. Conditions: Homo sapiens, HL-60 cells, 48 hours. As to the method: as §1
The subject of the next assay is HEL. The assay is described as above. The conditions noted are these: Homo sapiens, HEL cells, 48 hours. On the procedure:
as §1

Assay [3] relates to Caki-1. The description is as above. The conditions noted are these: Homo sapiens, Caki-1 cells, 48 hours. On the procedure: as §1
Assay [4] deals with 786-O. The experiment in a line: Free drug in vitro cytotoxicity (resazurin). The conditions noted are these: Homo sapiens, 786-0, 786-O cells, 96 hours. As to the method:
(§2) Cells as detailed below were collected and plated in 96 well black-sided plates at a density of 10,000 cells/well in 150 μL of medium. Serial dilutions of the test article (50 μL) were added, and incubation was carried out for 92 hours at 37° C. After addition of test compound, cultures were incubated to 96 hours at 37° C. Resazurin (0.25 mM, 50 μL, Sigma, St. Louis, Mo.) in medium was added and incubation was continued for 4 h. The plates were read on a Fusion HT microplate reader (Packard, Meriden, Conn.) using an excitation wavelength of 525 nm and an emission wavelength of 590 nm. Data from all assays were reduced using GraphPad Prism Version 4 for Windows (GraphPad Software, San Diego, Calif.). The IC50 concentrations compared to untreated control cells were determined using a 4 parameter curve fits.
Background: The colour change of resazurin is a common sign of viable cells or microbes.

The subject of assay [5] is MCF-7. The experiment in a line: Free drug in vitro cytotoxicity (resazurin). Conditions: Homo sapiens, MCF7, MCF-7 cells, 96 hours. On the procedure:
as §2

Another assay has as its system TF1a. The experiment in a line: Free drug in vitro cytotoxicity (resazurin). Conditions: TF-1a, TF1a cells, 96 hours. As to the method:
as §2

The subject of assay [6] is Caki-1. The experiment in a line: Free drug in vitro cytotoxicity (resazurin). The conditions noted are these: Homo sapiens, Caki-1 cells, 96 hours. As to the method:
as §2

With `COc1cc2c(cc1OCCCOc1cc3c(cc1OC)C(=O)N1C=C(c4ccc(N)cc4)C[C@H]1C=N3)N=C[C@@H]1CC(C)=CN1C2=O` [Compound 11, (S)-2-(4-aminophenyl)-7-methoxy-8-(3-((S)-7-methoxy-2-methyl-5-oxo-5,11a-dihydro-1H-pyrrolo[2,1-c][1,4]benzodiazepine-8-yloxy)propoxy)-1H-pyrrolo[2,1-c][1,4]benzodiazepine-5(11aH)-one], the IC50 – broadly, the point on the concentration scale where inhibition reaches its midpoint – in the assay with BxPC-3 was 3 nM; with 786-O [1] it was 0.85 nM; with MCF-7 [2] it was 7 nM; with HL-60, 0.1 nM; in the assay on HEL, 0.06 nM; with Caki-1 [3] it was 0.4 nM. The half-maximal inhibitory concentration (IC50) in the assay on 786-O [4] is 0.1 nM; in the assay on MCF-7 [5], 0.2 nM; in the assay on TF1a, 0.07 nM; in the assay on Caki-1 [6] it was 0.06 nM.

Regarding `CC=CC1=CN2C(=O)c3cc(OC)c(OCCCCCOc4cc5c(cc4OC)C(=O)N4C=C(c6cccc(N)c6)C[C@H]4C=N5)cc3N=C[C@@H]2C1` [Compound 15, (S)-2-(3-aminophenyl)-8-(5-((S)-2-propenyl-7-methoxy-5-oxo-5,11a-dihydro-1H-pyrrolo[2,1-c][1,4]benzodiazepine-8-yloxy)pentyloxy)-7-methoxy-1H-pyrrolo[2,1-c][1,4]benzodiazepine-5(11aH)-one], the concentration for half-maximal inhibition (IC50) in the assay with MCF-7 [5] came out at 0.03 nM. That is a picomolar value.

Regarding `COc1cc2c(cc1OCCCOc1cc3c(cc1OC)C(=O)N1C=C(c4cccc(N)c4)C[C@H]1C=N3)N=C[C@@H]1CC(C)=CN1C2=O` [Compound 18, (S)-2-(3-aminophenyl)-7-methoxy-8-(3-((S)-7-methoxy-2-methyl-5-oxo-5,11a-dihydro-1H-pyrrolo[2,1-c][1,4]benzodiazepine-8-yloxy)propoxy)-1H-pyrrolo[2,1-c][1,4]benzodiazepine-5(11aH)-one], the 50% inhibitory concentration (IC50) in the assay on 786-O [4] stood at 1 nM; with MCF-7 [5] it was 2 nM; with TF1a, 0.7 nM; in the assay with Caki-1 [6], 0.6 nM.
